In publication PMC6576746, “Rational discovery of dual-indication multi-target PDE/Kinase inhibitor for precision anti-cancer therapy using structural systems pharmacology” (PLoS Computational Biology, 2019):

Experiments:
Assay in all cases: biochemical
Design in all cases: DiscoverX KinomeScan competition binding assay across human kinases; per cent of control at 10 and 100 uM
[1] = target: T1, ABL1(F317I)-nonphosphorylated (Homo sapiens, UniProt P00519, F317I); conditions: competition binding, % of control; read-out: Percent Control (100 uM Levosimendan)
T1 construct: nonphosphorylated
In short: (§1)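 KinomeScan competition binding was run across a human kinase panel at 10 μM and 100 μM levosimendan. Results are %control = (test − positive control)/(negative control − positive control) × 100.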

[2] = target: T2, ABL1(F317L)-nonphosphorylated (Homo sapiens, UniProt P00519, F317L); conditions: competition binding, % of control; read-out: Percent Control (100 uM Levosimendan)
T2 construct: nonphosphorylated
In short: as §1

[3] = target: T3, ABL1(Y253F)-phosphorylated (Homo sapiens, UniProt P00519, Y253F); conditions: competition binding, % of control; read-out: Percent Control (100 uM Levosimendan)
T3 construct: phosphorylated
In short: as §1

ALK(C1156Y) = ALK(C1156Y) (Homo sapiens, UniProt Q9UM73, C1156Y); conditions: competition binding, % of control; read-out: Percent Control (100 uM Levosimendan)
In short: as §1

CDK8 = CDK8 (Homo sapiens, UniProt P49336); conditions: competition binding, % of control; read-out: Percent Control (100 uM Levosimendan)
Chain of CDK8 (P49336 whole entry): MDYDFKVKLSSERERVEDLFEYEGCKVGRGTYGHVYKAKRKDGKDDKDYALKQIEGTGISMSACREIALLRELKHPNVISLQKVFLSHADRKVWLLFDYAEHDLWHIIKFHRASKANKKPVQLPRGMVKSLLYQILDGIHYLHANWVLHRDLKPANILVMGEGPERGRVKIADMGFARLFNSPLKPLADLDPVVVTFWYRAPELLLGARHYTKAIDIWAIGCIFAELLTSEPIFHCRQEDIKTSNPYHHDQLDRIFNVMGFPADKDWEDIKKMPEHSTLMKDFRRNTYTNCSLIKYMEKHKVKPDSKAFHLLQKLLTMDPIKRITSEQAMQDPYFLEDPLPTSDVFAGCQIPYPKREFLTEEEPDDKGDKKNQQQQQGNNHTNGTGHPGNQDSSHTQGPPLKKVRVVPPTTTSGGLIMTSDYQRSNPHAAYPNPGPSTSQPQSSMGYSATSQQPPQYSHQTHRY
In short: as §1

CSNK1A1L = CSNK1A1L (Homo sapiens, UniProt Q8N752); conditions: competition binding, % of control; read-out: Percent Control (100 uM Levosimendan)
Chain of CSNK1A1L (Q8N752 whole entry): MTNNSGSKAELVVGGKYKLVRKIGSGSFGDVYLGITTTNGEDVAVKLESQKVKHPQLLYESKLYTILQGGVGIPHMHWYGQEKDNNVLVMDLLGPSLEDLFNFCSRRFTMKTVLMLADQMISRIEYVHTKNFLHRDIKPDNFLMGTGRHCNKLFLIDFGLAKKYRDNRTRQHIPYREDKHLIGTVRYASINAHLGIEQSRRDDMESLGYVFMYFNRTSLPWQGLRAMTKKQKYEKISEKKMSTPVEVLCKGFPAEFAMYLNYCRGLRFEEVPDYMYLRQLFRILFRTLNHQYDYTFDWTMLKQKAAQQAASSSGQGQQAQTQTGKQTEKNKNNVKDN
In short: as §1

FGFR3(G697C) = FGFR3(G697C) (Homo sapiens, UniProt P22607, G697C); conditions: competition binding, % of control; read-out: Percent Control (100 uM Levosimendan)
In short: as §1

JNK1 = target: T4, JNK1 (Homo sapiens, UniProt P45983); conditions: competition binding, % of control; read-out: Percent Control (100 uM Levosimendan)
T4 construct: gene MAPK8
T4 sequence (P45983 whole entry): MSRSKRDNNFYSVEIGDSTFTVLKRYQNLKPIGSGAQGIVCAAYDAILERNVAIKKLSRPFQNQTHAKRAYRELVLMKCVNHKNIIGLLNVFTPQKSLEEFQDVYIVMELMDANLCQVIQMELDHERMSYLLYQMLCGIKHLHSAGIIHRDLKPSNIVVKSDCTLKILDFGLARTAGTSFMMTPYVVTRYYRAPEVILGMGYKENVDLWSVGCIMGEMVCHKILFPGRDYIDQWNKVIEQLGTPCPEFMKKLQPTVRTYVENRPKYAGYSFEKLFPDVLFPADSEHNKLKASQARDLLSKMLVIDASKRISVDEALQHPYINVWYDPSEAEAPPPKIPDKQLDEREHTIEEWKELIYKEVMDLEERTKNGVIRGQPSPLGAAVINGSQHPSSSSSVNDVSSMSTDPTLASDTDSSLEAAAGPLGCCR
In short: as §1

JNK3 = target: T5, JNK3 (Homo sapiens, UniProt P53779); conditions: competition binding, % of control; read-out: Percent Control (100 uM Levosimendan)
T5 construct: gene MAPK10
T5 sequence (P53779 whole entry): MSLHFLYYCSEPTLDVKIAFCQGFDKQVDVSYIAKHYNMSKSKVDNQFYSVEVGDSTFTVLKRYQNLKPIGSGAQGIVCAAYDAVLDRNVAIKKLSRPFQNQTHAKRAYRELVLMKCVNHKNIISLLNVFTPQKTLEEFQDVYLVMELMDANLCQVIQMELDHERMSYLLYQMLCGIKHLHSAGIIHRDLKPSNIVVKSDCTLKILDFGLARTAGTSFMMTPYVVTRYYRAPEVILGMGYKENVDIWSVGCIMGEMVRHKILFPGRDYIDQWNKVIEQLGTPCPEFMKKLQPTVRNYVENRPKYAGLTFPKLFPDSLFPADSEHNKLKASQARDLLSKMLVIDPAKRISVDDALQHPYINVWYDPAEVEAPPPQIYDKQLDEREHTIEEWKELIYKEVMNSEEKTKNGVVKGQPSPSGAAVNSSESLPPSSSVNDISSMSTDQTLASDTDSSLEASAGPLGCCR
In short: as §1

MAST1 = MAST1 (Homo sapiens, UniProt Q9Y2H9); conditions: competition binding, % of control; read-out: Percent Control (100 uM Levosimendan)
Chain of MAST1 (Q9Y2H9 whole entry): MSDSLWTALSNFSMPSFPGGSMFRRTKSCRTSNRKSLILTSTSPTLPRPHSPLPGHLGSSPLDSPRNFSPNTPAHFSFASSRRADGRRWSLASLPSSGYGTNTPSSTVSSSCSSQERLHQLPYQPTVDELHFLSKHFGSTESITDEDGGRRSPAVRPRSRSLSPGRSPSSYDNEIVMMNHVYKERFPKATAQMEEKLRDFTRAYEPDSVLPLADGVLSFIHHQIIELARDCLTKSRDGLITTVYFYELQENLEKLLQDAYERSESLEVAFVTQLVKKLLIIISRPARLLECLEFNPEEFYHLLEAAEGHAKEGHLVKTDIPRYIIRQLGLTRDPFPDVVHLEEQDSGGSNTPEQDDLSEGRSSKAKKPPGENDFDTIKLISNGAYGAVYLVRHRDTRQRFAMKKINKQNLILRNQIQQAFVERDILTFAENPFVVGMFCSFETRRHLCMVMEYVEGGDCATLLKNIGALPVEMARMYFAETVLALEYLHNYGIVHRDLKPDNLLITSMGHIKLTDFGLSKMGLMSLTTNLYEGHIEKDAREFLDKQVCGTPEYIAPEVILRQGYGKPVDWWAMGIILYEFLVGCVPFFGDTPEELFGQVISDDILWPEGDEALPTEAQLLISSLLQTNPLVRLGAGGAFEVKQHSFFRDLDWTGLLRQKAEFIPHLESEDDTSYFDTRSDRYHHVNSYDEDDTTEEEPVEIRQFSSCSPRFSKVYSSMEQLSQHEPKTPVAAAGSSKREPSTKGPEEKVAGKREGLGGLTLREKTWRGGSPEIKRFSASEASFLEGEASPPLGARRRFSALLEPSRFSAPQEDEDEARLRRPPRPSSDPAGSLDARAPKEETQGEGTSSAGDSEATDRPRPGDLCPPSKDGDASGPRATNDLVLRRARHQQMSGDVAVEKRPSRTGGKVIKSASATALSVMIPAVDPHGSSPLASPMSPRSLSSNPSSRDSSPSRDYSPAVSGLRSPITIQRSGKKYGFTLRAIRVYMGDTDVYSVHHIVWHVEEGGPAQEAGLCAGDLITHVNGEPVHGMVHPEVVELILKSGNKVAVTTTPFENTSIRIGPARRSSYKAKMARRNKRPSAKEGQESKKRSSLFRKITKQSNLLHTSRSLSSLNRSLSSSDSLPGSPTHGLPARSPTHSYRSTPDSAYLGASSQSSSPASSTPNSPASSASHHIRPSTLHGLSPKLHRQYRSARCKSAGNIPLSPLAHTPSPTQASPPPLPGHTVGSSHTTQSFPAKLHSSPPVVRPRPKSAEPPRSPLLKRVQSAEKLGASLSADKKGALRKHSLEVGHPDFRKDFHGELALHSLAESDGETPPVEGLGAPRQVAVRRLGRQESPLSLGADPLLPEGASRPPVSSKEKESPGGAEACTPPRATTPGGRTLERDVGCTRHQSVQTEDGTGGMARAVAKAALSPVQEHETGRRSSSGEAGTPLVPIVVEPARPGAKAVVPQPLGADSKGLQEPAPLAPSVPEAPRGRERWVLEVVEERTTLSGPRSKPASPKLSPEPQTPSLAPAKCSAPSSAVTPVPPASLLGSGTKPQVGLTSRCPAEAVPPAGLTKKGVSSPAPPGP
In short: as §1

MLK1 = target: T6, MLK1 (Homo sapiens, UniProt P80192); conditions: competition binding, % of control; read-out: Percent Control (100 uM Levosimendan)
T6 construct: gene MAP3K9
In short: as §1

PCTK2 = target: T7, PCTK2 (Homo sapiens, UniProt Q00537); conditions: competition binding, % of control; read-out: Percent Control (100 uM Levosimendan)
T7 construct: gene CDK17
In short: as §1

PIK3CA(M1043I) = PIK3CA(M1043I) (Homo sapiens, UniProt P42336, M1043I); conditions: competition binding, % of control; read-out: Percent Control (100 uM Levosimendan)
In short: as §1

PKN2 = PKN2 (Homo sapiens, UniProt Q16513); conditions: competition binding, % of control
Chain of PKN2 (Q16513 whole entry): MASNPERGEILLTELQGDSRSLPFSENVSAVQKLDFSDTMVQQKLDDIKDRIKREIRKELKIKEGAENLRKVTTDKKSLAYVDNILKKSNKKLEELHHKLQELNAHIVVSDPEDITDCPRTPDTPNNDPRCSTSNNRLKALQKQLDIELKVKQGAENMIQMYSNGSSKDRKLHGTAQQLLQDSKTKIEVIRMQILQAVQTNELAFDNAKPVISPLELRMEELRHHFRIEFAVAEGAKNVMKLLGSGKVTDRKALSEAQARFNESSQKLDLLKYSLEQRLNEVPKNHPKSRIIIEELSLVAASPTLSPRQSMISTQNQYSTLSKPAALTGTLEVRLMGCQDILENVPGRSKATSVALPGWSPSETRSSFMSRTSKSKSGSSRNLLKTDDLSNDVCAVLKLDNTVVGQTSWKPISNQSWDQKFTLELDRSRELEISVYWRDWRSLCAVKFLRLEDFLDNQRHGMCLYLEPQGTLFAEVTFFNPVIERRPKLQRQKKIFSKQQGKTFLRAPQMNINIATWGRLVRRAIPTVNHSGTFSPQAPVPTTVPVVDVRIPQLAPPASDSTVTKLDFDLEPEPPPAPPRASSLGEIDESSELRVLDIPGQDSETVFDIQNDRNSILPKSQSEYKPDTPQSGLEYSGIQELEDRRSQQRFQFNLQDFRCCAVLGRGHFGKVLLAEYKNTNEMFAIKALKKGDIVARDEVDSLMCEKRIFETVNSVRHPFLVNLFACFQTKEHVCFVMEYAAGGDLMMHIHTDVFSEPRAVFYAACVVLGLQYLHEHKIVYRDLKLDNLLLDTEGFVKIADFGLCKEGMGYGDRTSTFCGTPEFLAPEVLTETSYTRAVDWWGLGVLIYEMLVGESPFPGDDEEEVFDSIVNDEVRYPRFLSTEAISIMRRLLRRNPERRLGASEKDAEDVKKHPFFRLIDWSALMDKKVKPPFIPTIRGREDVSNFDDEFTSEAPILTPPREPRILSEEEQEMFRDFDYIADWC
In short: as §1

PRKR = target: T8, PRKR (Homo sapiens, UniProt P19525); conditions: competition binding, % of control; read-out: Percent Control (100 uM Levosimendan)
T8 construct: gene EIF2AK2
In short: as §1

RIOK1 = RIOK1 (Homo sapiens, UniProt Q9BRS2); conditions: competition binding, % of control
Chain of RIOK1 (Q9BRS2 whole entry): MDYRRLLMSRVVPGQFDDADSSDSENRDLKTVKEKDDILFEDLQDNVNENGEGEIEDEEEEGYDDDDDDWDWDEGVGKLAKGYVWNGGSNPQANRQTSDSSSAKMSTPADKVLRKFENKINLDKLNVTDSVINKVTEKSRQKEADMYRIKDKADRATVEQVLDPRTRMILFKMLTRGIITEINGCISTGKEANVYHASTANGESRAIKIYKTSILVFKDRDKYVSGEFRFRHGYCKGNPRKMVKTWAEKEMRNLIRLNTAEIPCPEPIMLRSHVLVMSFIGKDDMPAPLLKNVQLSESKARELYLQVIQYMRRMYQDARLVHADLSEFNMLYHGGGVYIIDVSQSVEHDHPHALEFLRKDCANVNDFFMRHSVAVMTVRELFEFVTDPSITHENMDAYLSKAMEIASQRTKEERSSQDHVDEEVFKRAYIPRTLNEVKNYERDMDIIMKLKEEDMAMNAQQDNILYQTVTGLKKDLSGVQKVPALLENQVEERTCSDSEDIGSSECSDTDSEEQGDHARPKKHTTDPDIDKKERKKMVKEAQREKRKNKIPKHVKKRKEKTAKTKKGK
In short: as §1

SGK2 = SGK2 (Homo sapiens, UniProt Q9HBY8); conditions: competition binding, % of control; read-out: Percent Control (100 uM Levosimendan)
In short: as §1

STK33 = STK33 (Homo sapiens, UniProt Q9BYT3); conditions: competition binding, % of control; read-out: Percent Control (100 uM Levosimendan)
In short: as §1

TRPM6 = TRPM6 (Homo sapiens, UniProt Q9BX84); conditions: competition binding, % of control; read-out: Percent Control (100 uM Levosimendan)
In short: as §1

[4] = read-out: Percent Control (10 uM Levosimendan)
[5] = read-out: Percent Control (100 uM Levosimendan)

remaining binding at 100 µM [1]: 100% | remaining binding at 100 µM [2]: 100% | remaining binding at 100 µM [3]: 87% | remaining binding at 100 µM (ALK(C1156Y)): 64% | remaining binding at 100 µM (CDK8): 100% | remaining binding at 100 µM (CSNK1A1L): 55% | remaining binding at 100 µM (FGFR3(G697C)): 80% | remaining binding at 100 µM (JNK1): 71% | remaining binding at 100 µM (JNK3): 99% | remaining binding at 100 µM (MAST1): 100% | remaining binding at 100 µM (MLK1): 79% | remaining binding at 100 µM (PCTK2): 100% | remaining binding at 100 µM (PIK3CA(M1043I)): 100% | remaining binding at 10 µM (PKN2; [4]): 94% | remaining binding at 100 µM (PKN2; [5]): 49% | remaining binding at 100 µM (PRKR): 96% | remaining binding at 10 µM (RIOK1; [4]): 15% | remaining binding at 100 µM (RIOK1; [5]): 0% | remaining binding at 100 µM (SGK2): 90% | remaining binding at 100 µM (STK33): 100% | remaining binding at 100 µM (TRPM6): 89%
Structure (SMILES): C[C@@H]1CC(=O)NN=C1c1ccc(NN=C(C#N)C#N)cc1 [levosimendan]
